pIC50: −log10 of the molar value.
How the values were obtained:
[1] = target: Adenosine receptor A2a (Homo sapiens, UniProt P29274); assay: Measurement of A2A or A2B Binding Affinity Using Radioligand Binding
Description: (§1) Method (A): 148 μL (5 μg/mL) membranes (Perkin Elmer, Cat. No. RBHA2aM400UA) and 2 μL compounds of the invention to be tested (test compound) were transferred to individual wells of a 96-well polypropylene assay plate and incubated for 15 to 30 min at room temperature. [3H] SCH58261 ((7-(2-phenylethyl)-5-amino-2-(2-furyl)-pyrazolo-[4,3-e]-1,2,4-triazolo[1,5-c]pyrimidine)) was diluted in assay buffer (50 mM Tris pH 7.4, 10 mM MgCl2, 0.005% Tween20) to a concentration of 4 nM and 50 μL transferred to each well of the assay plate. To define total and non-specific binding, wells containing 1% DMSO and 1 μM ZM241385 (Tocris Bioscience, Cat. No. 1036) respectively, were also included. The assay plate was incubated at room temperature for 60 min with agitation. […] The plate was incubated for at least 20 min, and then the amount of radioactivity remaining in each well was determined using a TopCount (Perkin Elmer) scintillation counter. After normalization to total and non-specific binding, the percent effect at each compound concentration was calculated. The plot of percent effect versus the log of compound concentration was analyzed electronically using a 4-parameter logistic fit based on the Levenberg-Marquardt algorithm to generate IC50 values.

[2] = target: T1, Adenosine receptor A2b (Homo sapiens, UniProt P29275); assay: as above
T1 sequence (P29275 whole entry): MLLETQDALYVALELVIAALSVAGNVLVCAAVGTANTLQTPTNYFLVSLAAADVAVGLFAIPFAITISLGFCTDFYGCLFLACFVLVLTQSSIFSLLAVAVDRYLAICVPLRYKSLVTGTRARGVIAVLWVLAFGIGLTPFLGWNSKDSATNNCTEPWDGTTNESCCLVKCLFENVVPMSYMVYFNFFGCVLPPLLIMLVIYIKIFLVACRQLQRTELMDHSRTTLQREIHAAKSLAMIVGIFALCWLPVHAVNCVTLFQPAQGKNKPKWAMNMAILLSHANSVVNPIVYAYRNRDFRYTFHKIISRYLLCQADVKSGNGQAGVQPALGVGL
Description: as §1

Chain of Adenosine receptor A2a (P29274 whole entry): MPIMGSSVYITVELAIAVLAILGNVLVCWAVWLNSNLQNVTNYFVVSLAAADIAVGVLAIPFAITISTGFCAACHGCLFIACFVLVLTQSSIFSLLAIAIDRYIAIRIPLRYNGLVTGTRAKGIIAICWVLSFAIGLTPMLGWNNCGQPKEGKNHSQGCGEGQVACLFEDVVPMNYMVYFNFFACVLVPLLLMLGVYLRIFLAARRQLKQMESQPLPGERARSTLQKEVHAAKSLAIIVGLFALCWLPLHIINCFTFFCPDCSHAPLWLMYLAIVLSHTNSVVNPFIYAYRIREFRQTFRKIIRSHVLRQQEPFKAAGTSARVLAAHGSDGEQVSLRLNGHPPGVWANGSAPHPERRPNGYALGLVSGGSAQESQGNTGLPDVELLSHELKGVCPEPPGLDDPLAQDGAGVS

With `COc1cccc2c1nc(N)n1nc(CCS(=O)(=O)C(F)(F)F)nc21` [US20240076297, Example 13.5] the pIC50 [1] was 7.96 and the pIC50 [2] was 7.09.

Source: BindingDB's records for patent US20240076297 (Merck Sharp & Dohme, 2024)
